Experimental data taken from ChEMBL document CHEMBL5724806, “Unraveling interindividual differences and functional consequences of gut microbial metabolism of immunosuppressants” (2024).

Columns and labels:
Format in all cases: ADME
[1] = (§1) The drug is tested on Lactobacillus ruminis strain: ATCC25644 for biotransformation under microaerobic condition. The drug concentrations were measured over 6 timepoints collected between 0 and 12 hours of incubation by liquid-chromatography-coupled mass spectrometry (LC–MS); set-up: dose 5 uM, timepoint 0, 1.5, 3, 6, 9, 12 hours; conditions: ligilactobacillus ruminis, 5 µM
[2] = (§2) The drug is tested on Clostridium bolteae strain: DSM15670 for biotransformation under anaerobic condition. The drug concentrations were measured over 6 timepoints collected between 0 and 12 hours of incubation by liquid-chromatography-coupled mass spectrometry (LC–MS); set-up: dose 5 uM, timepoint 0, 1.5, 3, 6, 9, 12 hours; conditions: enterocloster bolteae, 5 µM
[3] = The drug is tested on Streptococcus anginosus strain: DSM20563 for biotransformation under microaerobic condition. The drug concentrations were measured over 6 timepoints collected between 0 and 12 hours of incubation by liquid-chromatography-coupled mass spectrometry (LC–MS); set-up: dose 5 uM, timepoint 0, 1.5, 3, 6, 9, 12 hours; conditions: 5 µM
[4] = as §2, with “the gut metagenome community of T-03 with ENA study accession number: PRJEB31790” for “Clostridium bolteae strain: DSM15670”, “7” for “6”; set-up: dose 5 uM, timepoint 0, 0.75, 1.5, 3, 6, 9, 12 hours; conditions: 5 µM
[5] = The drug is tested on Streptococcus mitis strain: DSM12643 for biotransformation under anaerobic condition. The drug concentrations were measured over 6 timepoints collected between 0 and 12 hours of incubation by liquid-chromatography-coupled mass spectrometry (LC–MS); set-up: dose 5 uM, timepoint 0, 1.5, 3, 6, 9, 12 hours; conditions: 5 µM
[6] = as §2, with “the gut metagenome community of T-02 with ENA study accession number: PRJEB31790” for “Clostridium bolteae strain: DSM15670”, “7” for “6”; set-up: dose 5 uM, timepoint 0, 0.75, 1.5, 3, 6, 9, 12 hours; conditions: 5 µM
[7] = as §2, with “the gut metagenome community of A-01 with ENA study accession number: PRJEB31790” for “Clostridium bolteae strain: DSM15670”, “7” for “6”; set-up: dose 5 uM, timepoint 0, 0.75, 1.5, 3, 6, 9, 12 hours; conditions: 5 µM
[8] = The drug is tested on Escherichia coli strain: DSM27469 for biotransformation under microaerobic condition. The drug concentrations were measured over 6 timepoints collected between 0 and 12 hours of incubation by liquid-chromatography-coupled mass spectrometry (LC–MS); set-up: dose 5 uM, timepoint 0, 1.5, 3, 6, 9, 12 hours; conditions: 5 µM
[9] = The drug is tested on Lactobacillus reuteri strain: DSM20016 for biotransformation under microaerobic condition. The drug concentrations were measured over 6 timepoints collected between 0 and 12 hours of incubation by liquid-chromatography-coupled mass spectrometry (LC–MS); set-up: dose 5 uM, timepoint 0, 1.5, 3, 6, 9, 12 hours; conditions: limosilactobacillus reuteri, 5 µM
[10] = as §1, with “the gut metagenome community of T-01 with ENA study accession number: PRJEB31790” for “Lactobacillus ruminis strain: ATCC25644”, “7” for “6”; set-up: dose 5 uM, timepoint 0, 0.75, 1.5, 3, 6, 9, 12 hours; conditions: 5 µM
[11] = The drug is tested on Actinomyces naeslundi strain: DSM43013 for biotransformation under anaerobic condition. The drug concentrations were measured over 6 timepoints collected between 0 and 12 hours of incubation by liquid-chromatography-coupled mass spectrometry (LC–MS); set-up: dose 5 uM, timepoint 0, 1.5, 3, 6, 9, 12 hours; conditions: actinomyces naeslundii, 5 µM

Bacterial Biotransformation [1]	Bacterial Biotransformation [2]	Bacterial Biotransformation [3]	Bacterial Biotransformation [4]	Bacterial Biotransformation [5]	Bacterial Biotransformation [6]	Bacterial Biotransformation [7]	Bacterial Biotransformation [8]	Bacterial Biotransformation [9]	Bacterial Biotransformation [10]	Bacterial Biotransformation [11]	SMILES
Compound NOT metabolized	Compound NOT metabolized	Compound NOT metabolized	Compound NOT metabolized	Compound NOT metabolized	Compound NOT metabolized	Compound NOT metabolized	Compound NOT metabolized	Compound NOT metabolized	Compound NOT metabolized	Compound NOT metabolized	CCOC(=O)[C@H](CCc1ccccc1)N[C@@H](C)C(=O)N1[C@H](C(=O)O)C[C@@H]2CCC[C@@H]21
Compound metabolized	Compound NOT metabolized	Compound metabolized	Compound NOT metabolized	Compound metabolized	Compound NOT metabolized	Compound NOT metabolized	Compound metabolized	Compound metabolized	Compound NOT metabolized	Compound NOT metabolized	Cn1cnc([N+](=O)[O-])c1Sc1ncnc2nc[nH]c12 [AZATHIOPRINE]
Compound NOT metabolized	Compound NOT metabolized	Compound NOT metabolized	Compound NOT metabolized	Compound NOT metabolized	Compound NOT metabolized	Compound NOT metabolized	Compound NOT metabolized	Compound NOT metabolized	Compound NOT metabolized	Compound NOT metabolized	NS(=O)(=O)c1cc(C(=O)O)c(NCc2ccco2)cc1Cl [FUROSEMIDE]
Compound NOT metabolized	Compound NOT metabolized	Compound NOT metabolized	Compound NOT metabolized	Compound NOT metabolized	Compound NOT metabolized	Compound NOT metabolized	Compound NOT metabolized	Compound NOT metabolized	Compound NOT metabolized	Compound NOT metabolized	CCOc1nc2cccc(C(=O)O)c2n1Cc1ccc(-c2ccccc2-c2nnn[nH]2)cc1
Compound NOT metabolized	Compound NOT metabolized	Compound NOT metabolized	Compound NOT metabolized	Compound NOT metabolized	Compound NOT metabolized	Compound NOT metabolized	Compound NOT metabolized	Compound NOT metabolized	Compound metabolized	Compound NOT metabolized	C[C@@H](NCCCc1cccc(C(F)(F)F)c1)c1cccc2ccccc12
Compound NOT metabolized	Compound NOT metabolized	Compound NOT metabolized	Compound NOT metabolized	Compound NOT metabolized	Compound metabolized	Compound metabolized	Compound NOT metabolized	Compound NOT metabolized	Compound metabolized	Compound NOT metabolized	C[C@]12C=CC(=O)C=C1CC[C@@H]1[C@@H]2C(=O)C[C@@]2(C)[C@H]1CC[C@]2(O)C(=O)CO [PREDNISONE]
Compound NOT metabolized	Compound metabolized	Compound NOT metabolized	Compound NOT metabolized	Compound NOT metabolized	Compound metabolized	Compound metabolized	Compound NOT metabolized	Compound NOT metabolized	Compound NOT metabolized	Compound NOT metabolized	CO[C@H]1C[C@@H]2CC[C@@H](C)[C@@](O)(O2)C(=O)C(=O)N2CCCC[C@H]2C(=O)O[C@H]([C@H](C)C[C@@H]2CC[C@@H](OCCO)[C@H](OC)C2)CC(=O)[C@H](C)/C=C(\C)[C@@H](O)[C@@H](OC)C(=O)[C@H](C)C[C@H](C)/C=C/C=C/C=C/1C [EVEROLIMUS]
Compound NOT metabolized	Compound NOT metabolized	Compound NOT metabolized	Compound NOT metabolized	Compound NOT metabolized	Compound metabolized	Compound NOT metabolized	Compound NOT metabolized	Compound NOT metabolized	Compound metabolized	Compound NOT metabolized	CN(Cc1cnc2nc(N)nc(N)c2n1)c1ccc(C(=O)N[C@@H](CCC(=O)O)C(=O)O)cc1 [METHOTREXATE]
Compound NOT metabolized	Compound NOT metabolized	Compound NOT metabolized	Compound NOT metabolized	Compound NOT metabolized	Compound NOT metabolized	Compound NOT metabolized	Compound NOT metabolized	Compound NOT metabolized	Compound NOT metabolized	Compound NOT metabolized	COc1c(C)c2c(c(O)c1C/C=C(\C)CCC(=O)O)C(=O)OC2 [MYCOPHENOLIC ACID]
Compound NOT metabolized	Compound NOT metabolized	Compound NOT metabolized	Compound NOT metabolized	Compound NOT metabolized	Compound metabolized	Compound metabolized	Compound NOT metabolized	Compound NOT metabolized	Compound metabolized	Compound NOT metabolized	C[C@]12CCC(=O)C=C1CC[C@@H]1[C@@H]2C(=O)C[C@@]2(C)[C@H]1CC[C@]2(O)C(=O)CO [CORTISONE]
Compound NOT metabolized	Compound NOT metabolized	Compound NOT metabolized	Compound NOT metabolized	Compound NOT metabolized	Compound metabolized	Compound NOT metabolized	Compound NOT metabolized	Compound NOT metabolized	Compound NOT metabolized	Compound NOT metabolized	C[C@H]1C[C@H]2[C@@H]3CCC4=CC(=O)C=C[C@]4(C)[C@@]3(F)[C@@H](O)C[C@]2(C)[C@@]1(O)C(=O)CO [BETAMETHASONE]

SMILES	Bacterial Biotransformation [1]	Bacterial Biotransformation [2]	Bacterial Biotransformation [3]	Bacterial Biotransformation [4]	Bacterial Biotransformation [5]	Bacterial Biotransformation [6]	Bacterial Biotransformation [7]	Bacterial Biotransformation [8]	Bacterial Biotransformation [9]	Bacterial Biotransformation [10]	Bacterial Biotransformation [11]
CCOC(=O)C1=C(COCCN)NC(C)=C(C(=O)OC)C1c1ccccc1Cl (stereo unspecified) [AMLODIPINE]	Compound NOT metabolized	–	Compound metabolized	Compound NOT metabolized	Compound NOT metabolized	Compound NOT metabolized	Compound NOT metabolized	Compound NOT metabolized	Compound NOT metabolized	Compound NOT metabolized	Compound NOT metabolized
